Columns and labels:
Test in all cases: Cell proliferation Ex.3
Type in all cases: cell-based
A2780 = details: Homo sapiens
Protocol: (§1) A dose response relationship on cell proliferation was assessed for Compound 13 on 140 tumor cell lines. […] Cells were cultured in the appropriate media. For the assays, cells were seeded in white cell culture-treated flat and clear bottom multiwell plates and incubated at 37° C. overnight before compound was added. […] on the medium, cell plates were equilibrated to room temperature for one hour, CellTiterGlo reagent (Promega) was added and luminescence was measured approximately an hour later using a luminometer. Raw data were converted into percent cell viability relative to the high and low control, which were set to 10000 and 000, respectively.

SW620 = details: Homo sapiens, SW-620
Protocol: as §1

HT29 = details: Homo sapiens, HT-29
Protocol: as §1

5637 = system: 5637
Protocol: as §1

ASPC1 = details: Homo sapiens
Protocol: as §1

NCIH460 = details: Homo sapiens, NCI-H460
Protocol: as §1

MDAMB468 = details: Homo sapiens, MDA-MB-468
Protocol: as §1

MHHES1 = details: Homo sapiens, MHH-ES-1
Protocol: as §1

THP-1 = details: Homo sapiens
Protocol: as §1

SNB75 = details: Homo sapiens, SNB-75
Protocol: as §1

MDAMB435 = details: Homo sapiens, MDA-MB-435
Protocol: as §1

UO31 = details: Homo sapiens, UO-31
Protocol: as §1

PANC1 = details: Homo sapiens, PANC-1
Protocol: as §1

T24 = details: Homo sapiens, T-24
Protocol: as §1

PANC1005 = details: Homo sapiens
Protocol: as §1

HCT116 = details: Homo sapiens, HCT-116
Protocol: as §1

J82 = details: Homo sapiens
Protocol: as §1

UMUC3 = details: Homo sapiens
Protocol: as §1

SKMEL28 = details: Homo sapiens, SK-MEL-28
Protocol: as §1

DU145 = details: Homo sapiens, DU-145
Protocol: as §1

A673 = details: Homo sapiens
Protocol: as §1

JEG3 = details: Homo sapiens, JEG-3
Protocol: as §1

DLD1 = details: Homo sapiens, DLD-1
Protocol: as §1

COLO205 = details: Homo sapiens, COLO 205
Protocol: as §1

NCIH82 = details: Homo sapiens, NCI-H82
Protocol: as §1

HL-60 = details: Homo sapiens
Protocol: as §1

- IC50 (A2780; A2780, 72 h): > 10 µM
- IC50 (A2780; A2780, 120 h): > 10 µM
- IC50 (A2780; A2780, 168 h): > 10 µM
- IC50 (SW620; SW620, 72 h): > 10 µM
- IC50 (SW620; SW620, 120 h): > 10 µM
- IC50 (SW620; SW620, 168 h): > 10 µM
- IC50 (HT29; HT29, 72 h): > 10 µM
- IC50 (HT29; HT29, 120 h): > 10 µM
- IC50 (HT29; HT29, 168 h): > 10 µM
- IC50 (ASPC1; ASPC1, 72 h): > 10 µM
- IC50 (ASPC1; ASPC1, 120 h): 0.72 µM
- IC50 (ASPC1; ASPC1, 168 h): 0.49 µM
- IC50 (MDAMB468; MDAMB468, 72 h): > 10 µM
- IC50 (MDAMB468; MDAMB468, 120 h): > 10 µM
- IC50 (MDAMB468; MDAMB468, 168 h): > 10 µM
- IC50 (THP-1; THP-1, 72 h): > 10 µM
- IC50 (THP-1; THP-1, 120 h): > 10 µM
- IC50 (THP-1; THP-1, 168 h): > 10 µM
- IC50 (MDAMB435; MDAMB435, 72 h): > 10 µM
- IC50 (MDAMB435; MDAMB435, 120 h): > 10 µM
- IC50 (MDAMB435; MDAMB435, 168 h): > 10 µM
- IC50 (PANC1; PANC1, 72 h): > 10 µM
- IC50 (PANC1; PANC1, 120 h): > 10 µM
- IC50 (PANC1; PANC1, 168 h): > 10 µM
- IC50 (T24; T24, 72 h): > 10 µM
- IC50 (T24; T24, 120 h): > 10 µM
- IC50 (T24; T24, 168 h): > 10 µM
- IC50 (PANC1005; Panc1005, 72 h): > 10 µM
- IC50 (PANC1005; Panc1005, 120 h): > 10 µM
- IC50 (PANC1005; Panc1005, 168 h): > 10 µM
- IC50 (HCT116; HCT116, 72 h): > 10 µM
- IC50 (HCT116; HCT116, 120 h): > 10 µM
- IC50 (HCT116; HCT116, 168 h): > 10 µM
- IC50 (SKMEL28; SKMEL28, 72 h): > 10 µM
- IC50 (SKMEL28; SKMEL28, 120 h): > 10 µM
- IC50 (SKMEL28; SKMEL28, 168 h): > 10 µM
- IC50 (DU145; DU145, 72 h): > 10 µM
- IC50 (DU145; DU145, 120 h): > 10 µM
- IC50 (DU145; DU145, 168 h): > 10 µM
- IC50 (DLD1; DLD1, 72 h): > 10 µM
- IC50 (DLD1; DLD1, 120 h): > 10 µM
- IC50 (DLD1; DLD1, 168 h): > 10 µM
- IC50 (COLO205; COLO205, 72 h): > 10 µM
- IC50 (COLO205; COLO205, 120 h): 1.15 µM
- IC50 (COLO205; COLO205, 168 h): 0.87 µM
- IC50 (HL-60; HL-60, 72 h): > 10 µM
- IC50 (HL-60; HL-60, 120 h): > 10 µM
- IC50 (HL-60; HL-60, 168 h): > 10 µM
Structure (SMILES): C#C[C@]1(CO)O[C@@H](n2cc(F)c(N)nc2=O)C[C@@H]1O [compound 9]
- IC50 (5637; 5637, 72 h): > 10 µM
- IC50 (5637; 5637, 120 h): > 10 µM
- IC50 (5637; 5637, 168 h): > 10 µM
- IC50 (NCIH460; NCIH460, 72 h): > 10 µM
- IC50 (NCIH460; NCIH460, 120 h): > 10 µM
- IC50 (NCIH460; NCIH460, 168 h): > 10 µM
- IC50 (MHHES1; MHHES1, 72 h): > 10 µM
- IC50 (MHHES1; MHHES1, 120 h): > 10 µM
- IC50 (MHHES1; MHHES1, 168 h): > 10 µM
- IC50 (SNB75; SNB75, 72 h): > 10 µM
- IC50 (SNB75; SNB75, 120 h): > 10 µM
- IC50 (SNB75; SNB75, 168 h): > 10 µM
- IC50 (UO31; UO31, 72 h): > 10 µM
- IC50 (UO31; UO31, 120 h): > 10 µM
- IC50 (UO31; UO31, 168 h): > 10 µM
- IC50 (J82; J82, 72 h): > 10 µM
- IC50 (J82; J82, 120 h): > 10 µM
- IC50 (J82; J82, 168 h): > 10 µM
- IC50 (UMUC3; UMUC3, 72 h): > 10 µM
- IC50 (UMUC3; UMUC3, 120 h): > 10 µM
- IC50 (UMUC3; UMUC3, 168 h): > 10 µM
- IC50 (A673; A673, 72 h): > 10 µM
- IC50 (A673; A673, 120 h): > 10 µM
- IC50 (A673; A673, 168 h): > 10 µM
- IC50 (JEG3; JEG3, 72 h): > 10 µM
- IC50 (JEG3; JEG3, 120 h): > 10 µM
- IC50 (JEG3; JEG3, 168 h): > 10 µM
- IC50 (NCIH82; NCIH82, 72 h): > 10 µM
- IC50 (NCIH82; NCIH82, 120 h): 9.1 µM
- IC50 (NCIH82; NCIH82, 168 h): > 10 µM
